According to PMC7894426, “Influence of verapamil on the pharmacokinetics of rotundic acid in rats and its potential mechanism” (Pharmaceutical Biology, 2021):
Like-named read-outs stand apart in the source and are kept apart here.

How the values were obtained:
P-gp [1] = biological target: P-gp (Homo sapiens, UniProt P08183); assay: Bidirectional transport across MDCKII-MDR1 cell monolayers (P-gp substrate assessment)
Method: MDCKII-Mock and MDCKII-MDR1 cells were given as a gift by Fuji Biomedix Co., Ltd. (Japan) and cultured in DMEM supplemented with 10% FBS and 1% antibiotic (10,000 U/mL penicillin and 10 mg/mL streptomycin). Caco-2 cell line, the human epithelial cell used in this assay, was purchased from the Cell Bank of the Chinese Academy of Sciences (Shanghai, China) and maintained between 30 and 45 passages. It was cultured according to the previous report (Guo et al. [2018]; Xiang et al. [2020]). Briefly, the Caco-2 cells were cultured in DMEM supplemented with 10% FBS, 1% NEAA, and 1% antibiotic (10,000 U/mL penicillin and 10 mg/mL streptomycin). All cells were maintained in a 5% CO2 atmosphere and 90% relative humidity at 37 °C.
For transport studies, the MDCKII-Mock, MDCKII-MDR1, and Caco-2 cells were seeded at a density of 2 × 10^5 cells/mL on Costar Transwell inserts (1.12 cm^2 surface, polycarbonate, 12 mm diameter, 0.4 µm pore size). MDCKII-Mock and MDCKII-MDR1 cells were cultured for 5–7 days in medium, for the first four days, the medium was replaced freshly every two days, and then daily. The Caco-2 cells were cultured for 19–21 days in the medium. For the first 2 weeks, the medium was replaced freshly every two days, and then daily. […] The transepithelial electrical resistance (TEER) of the monolayer cells was measured by Millcell ERS-2 (Millipore, USA), and only the monolayer with TEER exceeding 150 Ω·m^2 (MDCKII-Mock and MDCKII-MDR1 cells) and 400 Ω·m^2 (Caco-2 cells) were used for the transport experiment. The membrane integrity and transport function of MDCKII-Mock, MDCKII-MDR1, and Caco-2 cell monolayers were further verified with Lucifer yellow and Rhodamine-123. The qualified monolayers were used for transport studies.
Before the transport studies, the media in both chambers of the transwell were replaced by warm (37 °C) Hank’s balanced salt solution (HBSS), and then the MDCKII-Mock, MDCKII-MDR1, and Caco-2 cell monolayers were incubated at 37 °C and 5% CO2 for 20 min. […] Our transport studies included absorptive direction transport from the apical (AP) side to the basolateral (BL) side and secretory direction transport from the BL side to the AP side. […] After administration, the transwell plate was placed in a thermostatic oscillator shaking at 60 rpm and 37 °C. At 10, 20, 40 and 60 min, respectively, 50 µL incubating sample aliquot was collected from the receiver chamber and immediately replaced by the same volume of fresh HBSS (37 °C). In addition, the membrane integrity of MDCKII-Mock, MDCKII-MDR1, and Caco-2 cell monolayers were evaluated with Lucifer yellow (30 µM) and TEER value, and the efflux activity of P-gp was validated using a typical P-gp substrate rhodamine-123 (10 µM).
The parameters Papp, RE, and NRE were calculated using the following equation: Papp=(ΔQ/Δt)×[1/(A×C0)]

[2] = test system: MDCKII-Mock cell monolayers; assay: Bidirectional transport across MDCKII-Mock cell monolayers; type: in vitro ADME, canine; settings: MDCKII-Mock monolayer integrity check, Lucifer yellow 30 µM
Method: (§1) The qualified monolayers were used for transport studies. […] Each experiment was carried out in triplicate.

Caco-2 cell monolayer = assay: Bidirectional transport across Caco-2 cell monolayer; type: in vitro ADME, human; settings: Caco-2 monolayer integrity check, Lucifer yellow 30 µM
Method: as §1

[3] = rats; ref Wang et al. [1994]; cited from earlier work
[4] = Bidirectional transport across MDCKII-Mock cell monolayers; type: in vitro ADME, canine; settings: dog, MDCK, MDCKII-Mock, 20 min; for efflux ratio at 20 min: read-out: RE (efflux ratio)
Method: as §1

P-gp [5] = assay: Bidirectional transport across Caco-2 cell monolayer; type: in vitro ADME, human; settings: human, Caco-2, rhodamine-123 10 µM
Method: as §1

[6] = pH 7.4, with verapamil 50 µM, + 50 µM verapamil

Chain of P-gp (Homo sapiens, UniProt P08183) (P08183 whole entry): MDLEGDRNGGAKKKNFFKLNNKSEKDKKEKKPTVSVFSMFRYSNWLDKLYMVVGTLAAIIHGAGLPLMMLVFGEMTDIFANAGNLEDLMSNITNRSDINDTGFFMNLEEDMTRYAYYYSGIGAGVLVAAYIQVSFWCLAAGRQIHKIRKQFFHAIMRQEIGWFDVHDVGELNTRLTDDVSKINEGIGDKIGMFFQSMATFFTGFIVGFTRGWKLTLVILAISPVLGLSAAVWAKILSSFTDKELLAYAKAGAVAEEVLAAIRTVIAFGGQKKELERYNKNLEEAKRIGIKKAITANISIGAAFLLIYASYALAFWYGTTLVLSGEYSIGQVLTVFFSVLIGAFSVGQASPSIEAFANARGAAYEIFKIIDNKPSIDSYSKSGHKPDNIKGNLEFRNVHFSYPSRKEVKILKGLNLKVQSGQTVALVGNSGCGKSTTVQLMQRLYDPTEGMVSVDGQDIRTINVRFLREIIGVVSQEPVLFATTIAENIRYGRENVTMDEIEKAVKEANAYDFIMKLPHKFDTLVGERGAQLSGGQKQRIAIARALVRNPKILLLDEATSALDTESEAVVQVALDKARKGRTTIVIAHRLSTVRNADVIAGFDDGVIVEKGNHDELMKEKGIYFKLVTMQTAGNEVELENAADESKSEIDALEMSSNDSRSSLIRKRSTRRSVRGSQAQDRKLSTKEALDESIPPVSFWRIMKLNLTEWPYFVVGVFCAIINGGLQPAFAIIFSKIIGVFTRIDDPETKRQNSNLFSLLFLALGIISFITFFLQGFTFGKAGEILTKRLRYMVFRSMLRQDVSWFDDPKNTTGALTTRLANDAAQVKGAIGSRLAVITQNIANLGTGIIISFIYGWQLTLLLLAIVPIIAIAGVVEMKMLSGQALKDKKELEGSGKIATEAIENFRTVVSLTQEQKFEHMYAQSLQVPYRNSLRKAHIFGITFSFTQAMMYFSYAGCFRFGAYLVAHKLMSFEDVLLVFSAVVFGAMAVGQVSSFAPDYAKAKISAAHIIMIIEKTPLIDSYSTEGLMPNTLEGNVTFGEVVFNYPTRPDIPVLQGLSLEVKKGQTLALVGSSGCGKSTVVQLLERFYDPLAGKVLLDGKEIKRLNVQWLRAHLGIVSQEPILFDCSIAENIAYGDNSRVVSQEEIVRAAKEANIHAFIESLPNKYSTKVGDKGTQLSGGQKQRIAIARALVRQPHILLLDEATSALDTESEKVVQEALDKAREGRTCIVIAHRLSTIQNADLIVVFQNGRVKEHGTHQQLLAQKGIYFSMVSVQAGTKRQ

## Lucifer yellow
P-gp [1]; MDCKII-MDR1 monolayer integrity check, Lucifer yellow 30 µM
  Papp(AP→BL): 0.432 ± 0.0468 × 10^−6 cm/s
[2]
  Papp(AP→BL): 0.463 ± 0.0568 × 10^−6 cm/s
Caco-2 cell monolayer
  Papp(AP→BL): 0.268 ± 0.0346 × 10^−6 cm/s

## CC1(C)[C@@H](O[C@H]2O[C@H](C(=O)O)[C@@H](O)[C@H](O)[C@H]2O[C@@H]2O[C@H](C(=O)O)[C@@H](O)[C@H](O)[C@H]2O)CC[C@]2(C)[C@H]3C(=O)C=C4[C@@H]5C[C@@](C)(C(=O)O)CC[C@]5(C)CC[C@@]4(C)[C@]3(C)CC[C@@H]12 [glycyrrhizin]
[3]
  bioavailability: 4.0%

## COC(=O)c1ccccc1-c1c2ccc(=N)cc-2oc2cc(N)ccc12 [Rhodamine 123, rhodamine-123]
P-gp [1]; dog, MDCK-MDR1, pH 7.4
  Papp A→B at 20 min: 0.193 ± 0.0535 ×10⁻⁶ cm/s
  Papp B→A at 20 min: 1.78 ± 0.293 ×10⁻⁶ cm/s
  efflux ratio at 20 min: 9.2
[4]; [6]
  Papp A→B at 20 min: 0.409 ± 0.0686 ×10⁻⁶ cm/s
  Papp B→A at 20 min: 0.538 ± 0.0642 ×10⁻⁶ cm/s
  efflux ratio at 20 min: 1.32
[4]; pH 7.4, without verapamil
  Papp A→B at 20 min: 0.378 ± 0.0314 ×10⁻⁶ cm/s
  Papp B→A at 20 min: 0.481 ± 0.0998 ×10⁻⁶ cm/s
  efflux ratio at 20 min: 1.27
P-gp [5]; pH 7.4, with verapamil 50 µM, verapamil present (50 µM)
  efflux ratio at 10 µM: 4.86
P-gp [5]; pH 7.4, without verapamil
  efflux ratio at 10 µM: 15.6
